# Experiments:
# LOK(h) = target: T1, LOK(h) (Homo sapiens, UniProt O94804); experiment: Kinase selectivity panel: LOK; format: biochemical
# T1 construct: purchased Eurofins (Millipore) KinaseProfiler Diversity Panel
# Experimental: (§1) To confirm the anti-inflammatory effect was caused by RIPK2 inhibition, compound 14 was subjected to kinase selectivity evaluation (Figure 4). Kinase selectivity profile of compound 14 as shown by the diversity kinase Panel screen against 70 kinases assayed at 1 µM. Among all tested 70 kinases, only five were inhibited over 90% at 1 µM including Fyn, Lyn, BTK, Abl and RIPK2. Three kinases including KDR, CDK9 and LOK were inhibited 50–90% at 1 µM.
# TBK1(h) = target: T2, TBK1(h) (Homo sapiens, UniProt Q9UHD2); experiment: Kinase selectivity panel: TBK1; format: biochemical
# T2 construct: purchased Eurofins (Millipore) KinaseProfiler Diversity Panel
# Experimental: as §1
# RIPK2(h) = target: T3, RIPK2(h) (Homo sapiens, UniProt O43353); experiment: Kinase selectivity panel: RIPK2; format: biochemical
# T3 construct: purchased Eurofins (Millipore) KinaseProfiler Diversity Panel
# Experimental: as §1
# MAPKAP-K2(h) = target: T4, MAPKAP-K2(h) (Homo sapiens, UniProt P49137); experiment: Kinase selectivity panel: MAPKAP-K2; format: biochemical; conditions: 1 µM
# T4 construct: purchased Eurofins (Millipore) KinaseProfiler Diversity Panel
# Experimental: as §1
# Syk(h) = target: T5, Syk(h) (Homo sapiens, UniProt P43405); experiment: Kinase selectivity panel: Syk; format: biochemical
# T5 construct: purchased Eurofins (Millipore) KinaseProfiler Diversity Panel
# Experimental: as §1
# Rsk1(h) = target: T6, Rsk1(h) (Homo sapiens, UniProt Q15418); experiment: Kinase selectivity panel: Rsk1; format: biochemical; conditions: 1 µM
# T6 construct: purchased Eurofins (Millipore) KinaseProfiler Diversity Panel
# Experimental: as §1
# [1] = target: T7, PI3 Kinase (p110d/p85a)(h) (Homo sapiens, UniProt O00329); experiment: Kinase selectivity panel: PI3 Kinase (p110d/p85a); format: biochemical; conditions: 1 µM
# T7 construct: purchased Eurofins (Millipore) KinaseProfiler Diversity Panel
# Experimental: as §1
# PKG1α(h) = target: T8, PKG1α(h) (Homo sapiens, UniProt Q13976); experiment: Kinase selectivity panel: PKG1α; format: biochemical
# T8 construct: purchased Eurofins (Millipore) KinaseProfiler Diversity Panel
# Experimental: as §1
# PRAK(h) = target: T9, PRAK(h) (Homo sapiens, UniProt Q8IW41); experiment: Kinase selectivity panel: PRAK; format: biochemical; conditions: 1 µM
# T9 construct: purchased Eurofins (Millipore) KinaseProfiler Diversity Panel
# Experimental: as §1
# EphA5(h) = target: T10, EphA5(h) (Homo sapiens, UniProt P54756); experiment: Kinase selectivity panel: EphA5; format: biochemical; conditions: 1 µM
# T10 construct: purchased Eurofins (Millipore) KinaseProfiler Diversity Panel
# Experimental: as §1
# [2] = target: T11, PI3 Kinase (p110a/p85a)(h) (Homo sapiens, UniProt P42336); experiment: Kinase selectivity panel: PI3 Kinase (p110a/p85a); format: biochemical; conditions: 1 µM
# T11 construct: purchased Eurofins (Millipore) KinaseProfiler Diversity Panel
# Experimental: as §1
# EGFR(h) = target: T12, EGFR(h) (Homo sapiens, UniProt P00533); experiment: Kinase selectivity panel: EGFR; format: biochemical; design: unit not given here
# T12 construct: purchased Eurofins (Millipore) KinaseProfiler Diversity Panel
# Experimental: as §1
# CDK9/cyclin T1(h) = target: T13, CDK9/cyclin T1(h) (Homo sapiens, UniProt P50750); experiment: Kinase selectivity panel: CDK9/cyclin T1; format: biochemical
# T13 construct: purchased Eurofins (Millipore) KinaseProfiler Diversity Panel
# Experimental: as §1
# DRAK1(h) = target: T14, DRAK1(h) (Homo sapiens, UniProt Q9UEE5); experiment: Kinase selectivity panel: DRAK1; format: biochemical; conditions: 1 µM
# T14 construct: purchased Eurofins (Millipore) KinaseProfiler Diversity Panel
# Experimental: as §1
# [3] = Human liver microsome stability; format: in vitro ADME; conditions: human liver microsomes
# Lyn(h) = target: T15, Lyn(h) (Homo sapiens, UniProt P07948); experiment: Kinase selectivity panel: Lyn; format: biochemical
# T15 construct: purchased Eurofins (Millipore) KinaseProfiler Diversity Panel
# Experimental: as §1
# CDK6/cyclinD3(h) = target: T16, CDK6/cyclinD3(h) (Homo sapiens, UniProt Q00534); experiment: Kinase selectivity panel: CDK6/cyclinD3; format: biochemical
# T16 construct: purchased Eurofins (Millipore) KinaseProfiler Diversity Panel
# Experimental: as §1
# RIPK2 = target: T17, RIPK2 (Homo sapiens, UniProt O43353); experiment: RIPK2 kinase inhibition assay (ADP-Glo); format: biochemical; conditions: mean ± SD from two separate experiments
# T17 construct: purchased Promega
# Experimental: RIPK2 kinase activity was analysed using the ADP-Glo™ Assay Kit (RIPK2 Kinase Enzyme System, Promega, USA). Reactions were performed according to the instructions. Specific signal was calculated by subtracting values in the wells without protein and inhibitor from the values in the test wells.
# mTOR(h) = target: T18, mTOR(h) (Homo sapiens, UniProt P42345); experiment: Kinase selectivity panel: mTOR; format: biochemical
# T18 construct: purchased Eurofins (Millipore) KinaseProfiler Diversity Panel
# Experimental: as §1
# SRPK1(h) = target: T19, SRPK1(h) (Homo sapiens, UniProt Q96SB4); experiment: Kinase selectivity panel: SRPK1; format: biochemical; design: unit not given here
# T19 construct: purchased Eurofins (Millipore) KinaseProfiler Diversity Panel
# Experimental: as §1
# GSK3β(h) = target: T20, GSK3β(h) (Homo sapiens, UniProt P49841); experiment: Kinase selectivity panel: GSK3β; format: biochemical; conditions: 1 µM
# T20 construct: purchased Eurofins (Millipore) KinaseProfiler Diversity Panel
# Experimental: as §1
# Mnk2(h) = target: T21, Mnk2(h) (Homo sapiens, UniProt Q9HBH9); experiment: Kinase selectivity panel: Mnk2; format: biochemical
# T21 construct: purchased Eurofins (Millipore) KinaseProfiler Diversity Panel
# Experimental: as §1
# IKKα(h) = target: T22, IKKα(h) (Homo sapiens, UniProt O15111); experiment: Kinase selectivity panel: IKKα; format: biochemical
# T22 construct: purchased Eurofins (Millipore) KinaseProfiler Diversity Panel
# Experimental: as §1
# [4] = target: T23, PI3 Kinase (p110b/p85a)(h) (Homo sapiens, UniProt P42338); experiment: Kinase selectivity panel: PI3 Kinase (p110b/p85a); format: biochemical
# T23 construct: purchased Eurofins (Millipore) KinaseProfiler Diversity Panel
# Experimental: as §1
# MLK1(h) = target: T24, MLK1(h) (Homo sapiens, UniProt P80192); experiment: Kinase selectivity panel: MLK1; format: biochemical
# T24 construct: purchased Eurofins (Millipore) KinaseProfiler Diversity Panel
# Experimental: as §1
# JAK3(h) = target: T25, JAK3(h) (Homo sapiens, UniProt P52333); experiment: Kinase selectivity panel: JAK3; format: biochemical; conditions: 1 µM
# T25 construct: purchased Eurofins (Millipore) KinaseProfiler Diversity Panel
# Experimental: as §1
# KDR(h) = target: T26, KDR(h) (Homo sapiens, UniProt P35968); experiment: Kinase selectivity panel: KDR; format: biochemical; design: KDR(h), 14 @ 1 µM: unit not given here
# T26 construct: purchased Eurofins (Millipore) KinaseProfiler Diversity Panel
# Experimental: as §1
# IKKε(h) = target: T27, IKKε(h) (Homo sapiens, UniProt Q14164); experiment: Kinase selectivity panel: IKKε; format: biochemical
# T27 construct: purchased Eurofins (Millipore) KinaseProfiler Diversity Panel
# Experimental: as §1
# Aurora-A(h) = target: T28, Aurora-A(h) (Homo sapiens, UniProt O14965); experiment: Kinase selectivity panel: Aurora-A; format: biochemical; conditions: 1 µM
# T28 construct: purchased Eurofins (Millipore) KinaseProfiler Diversity Panel
# Experimental: as §1
# Itk(h) = target: T29, Itk(h) (Homo sapiens, UniProt Q08881); experiment: Kinase selectivity panel: Itk; format: biochemical
# T29 construct: purchased Eurofins (Millipore) KinaseProfiler Diversity Panel
# Experimental: as §1
# MST1(h) = target: T30, MST1(h) (Homo sapiens, UniProt Q13043); experiment: Kinase selectivity panel: MST1; format: biochemical
# T30 construct: purchased Eurofins (Millipore) KinaseProfiler Diversity Panel
# Experimental: as §1
# NEK2(h) = target: T31, NEK2(h) (Homo sapiens, UniProt P51955); experiment: Kinase selectivity panel: NEK2; format: biochemical; conditions: 1 µM
# T31 construct: purchased Eurofins (Millipore) KinaseProfiler Diversity Panel
# Experimental: as §1
# ROCK-I(h) = target: T32, ROCK-I(h) (Homo sapiens, UniProt Q13464); experiment: Kinase selectivity panel: ROCK-I; format: biochemical; conditions: 1 µM
# T32 construct: purchased Eurofins (Millipore) KinaseProfiler Diversity Panel
# Experimental: as §1
# p70S6K(h) = target: T33, p70S6K(h) (Homo sapiens, UniProt P23443); experiment: Kinase selectivity panel: p70S6K; format: biochemical
# T33 construct: purchased Eurofins (Millipore) KinaseProfiler Diversity Panel
# Experimental: as §1
# c-RAF(h) = target: T34, c-RAF(h) (Homo sapiens, UniProt P04049); experiment: Kinase selectivity panel: c-RAF; format: biochemical
# T34 construct: purchased Eurofins (Millipore) KinaseProfiler Diversity Panel
# Experimental: as §1
# CK1γ1(h) = target: T35, CK1γ1(h) (Homo sapiens, UniProt Q9HCP0); experiment: Kinase selectivity panel: CK1γ1; format: biochemical; conditions: 1 µM
# T35 construct: purchased Eurofins (Millipore) KinaseProfiler Diversity Panel
# Experimental: as §1
# PDGFRβ(h) = target: T36, PDGFRβ(h) (Homo sapiens, UniProt P09619); experiment: Kinase selectivity panel: PDGFRβ; format: biochemical
# T36 construct: purchased Eurofins (Millipore) KinaseProfiler Diversity Panel
# Experimental: as §1
# T3 sequence (O43353 whole entry): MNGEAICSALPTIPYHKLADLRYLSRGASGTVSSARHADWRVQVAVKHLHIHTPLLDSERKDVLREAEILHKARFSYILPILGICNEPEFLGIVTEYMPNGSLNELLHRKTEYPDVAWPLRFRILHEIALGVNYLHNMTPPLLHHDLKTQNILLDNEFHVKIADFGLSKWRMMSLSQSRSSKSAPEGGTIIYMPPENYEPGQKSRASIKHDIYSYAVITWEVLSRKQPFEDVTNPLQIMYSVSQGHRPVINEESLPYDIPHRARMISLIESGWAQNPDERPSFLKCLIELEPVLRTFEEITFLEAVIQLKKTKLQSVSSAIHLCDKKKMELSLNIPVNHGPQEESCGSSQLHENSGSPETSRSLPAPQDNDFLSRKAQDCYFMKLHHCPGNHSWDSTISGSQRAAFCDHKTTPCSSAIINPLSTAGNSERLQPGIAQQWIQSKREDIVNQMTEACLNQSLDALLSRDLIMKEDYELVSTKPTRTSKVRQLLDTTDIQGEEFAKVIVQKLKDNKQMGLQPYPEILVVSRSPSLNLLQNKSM
# T26 sequence (P35968 20-1356): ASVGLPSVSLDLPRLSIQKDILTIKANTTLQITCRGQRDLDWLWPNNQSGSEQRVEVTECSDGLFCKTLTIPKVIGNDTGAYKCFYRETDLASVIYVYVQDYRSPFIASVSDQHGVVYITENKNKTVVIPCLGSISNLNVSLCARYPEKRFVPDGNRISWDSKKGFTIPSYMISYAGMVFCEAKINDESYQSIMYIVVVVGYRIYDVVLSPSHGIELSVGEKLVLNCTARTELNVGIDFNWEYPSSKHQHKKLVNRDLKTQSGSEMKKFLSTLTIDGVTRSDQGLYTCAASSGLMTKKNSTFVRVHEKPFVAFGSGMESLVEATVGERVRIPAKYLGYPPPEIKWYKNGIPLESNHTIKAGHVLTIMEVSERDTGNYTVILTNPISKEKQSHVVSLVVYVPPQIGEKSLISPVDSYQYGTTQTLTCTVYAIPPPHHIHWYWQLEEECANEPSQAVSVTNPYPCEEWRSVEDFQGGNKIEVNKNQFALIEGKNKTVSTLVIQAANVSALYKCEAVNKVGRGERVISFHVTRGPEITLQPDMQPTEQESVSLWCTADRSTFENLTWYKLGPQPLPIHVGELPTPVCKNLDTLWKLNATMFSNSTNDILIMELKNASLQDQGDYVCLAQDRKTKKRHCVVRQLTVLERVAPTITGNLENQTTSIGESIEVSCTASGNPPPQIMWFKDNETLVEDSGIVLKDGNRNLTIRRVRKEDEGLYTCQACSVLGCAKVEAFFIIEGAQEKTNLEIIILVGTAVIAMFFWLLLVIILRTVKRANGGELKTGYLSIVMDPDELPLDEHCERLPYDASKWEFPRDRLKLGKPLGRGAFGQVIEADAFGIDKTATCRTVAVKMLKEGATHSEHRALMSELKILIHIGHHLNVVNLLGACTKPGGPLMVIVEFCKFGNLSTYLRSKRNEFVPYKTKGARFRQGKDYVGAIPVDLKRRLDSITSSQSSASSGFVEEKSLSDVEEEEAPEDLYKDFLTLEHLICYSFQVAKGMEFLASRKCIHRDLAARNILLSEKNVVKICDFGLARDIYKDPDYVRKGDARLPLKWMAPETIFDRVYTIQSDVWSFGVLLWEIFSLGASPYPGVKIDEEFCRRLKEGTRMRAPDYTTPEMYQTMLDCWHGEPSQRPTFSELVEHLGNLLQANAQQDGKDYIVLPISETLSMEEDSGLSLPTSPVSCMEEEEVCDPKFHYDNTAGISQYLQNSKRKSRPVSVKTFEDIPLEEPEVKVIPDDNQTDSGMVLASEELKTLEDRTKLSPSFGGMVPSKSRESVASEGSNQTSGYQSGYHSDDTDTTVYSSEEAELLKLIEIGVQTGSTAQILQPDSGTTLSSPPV
# T1 sequence (O94804 whole entry): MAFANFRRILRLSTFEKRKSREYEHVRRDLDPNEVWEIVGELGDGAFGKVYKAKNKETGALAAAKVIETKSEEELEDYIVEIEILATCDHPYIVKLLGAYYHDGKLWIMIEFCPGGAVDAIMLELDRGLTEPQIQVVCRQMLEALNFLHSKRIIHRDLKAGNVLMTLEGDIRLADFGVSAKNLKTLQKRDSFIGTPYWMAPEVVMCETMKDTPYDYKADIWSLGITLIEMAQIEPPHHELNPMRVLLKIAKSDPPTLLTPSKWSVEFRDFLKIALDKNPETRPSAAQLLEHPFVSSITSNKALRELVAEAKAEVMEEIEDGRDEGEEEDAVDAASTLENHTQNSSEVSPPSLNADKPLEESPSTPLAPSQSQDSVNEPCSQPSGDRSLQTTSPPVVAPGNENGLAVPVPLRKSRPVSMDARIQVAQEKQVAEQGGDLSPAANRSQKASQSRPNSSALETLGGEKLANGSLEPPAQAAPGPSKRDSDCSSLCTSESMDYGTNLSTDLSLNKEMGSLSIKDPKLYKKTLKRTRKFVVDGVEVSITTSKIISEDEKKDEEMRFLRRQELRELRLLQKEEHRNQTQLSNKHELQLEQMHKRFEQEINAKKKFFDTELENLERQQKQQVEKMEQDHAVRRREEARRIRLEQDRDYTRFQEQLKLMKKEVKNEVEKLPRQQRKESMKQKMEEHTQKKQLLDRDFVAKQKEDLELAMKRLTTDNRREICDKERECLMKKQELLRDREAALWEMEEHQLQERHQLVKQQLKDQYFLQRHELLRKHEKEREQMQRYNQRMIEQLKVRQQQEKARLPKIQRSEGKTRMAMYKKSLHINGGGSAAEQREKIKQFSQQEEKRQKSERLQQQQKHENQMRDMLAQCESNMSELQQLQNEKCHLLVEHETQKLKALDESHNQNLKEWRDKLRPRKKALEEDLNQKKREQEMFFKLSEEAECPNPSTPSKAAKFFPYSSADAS
# T15 sequence (P07948 whole entry): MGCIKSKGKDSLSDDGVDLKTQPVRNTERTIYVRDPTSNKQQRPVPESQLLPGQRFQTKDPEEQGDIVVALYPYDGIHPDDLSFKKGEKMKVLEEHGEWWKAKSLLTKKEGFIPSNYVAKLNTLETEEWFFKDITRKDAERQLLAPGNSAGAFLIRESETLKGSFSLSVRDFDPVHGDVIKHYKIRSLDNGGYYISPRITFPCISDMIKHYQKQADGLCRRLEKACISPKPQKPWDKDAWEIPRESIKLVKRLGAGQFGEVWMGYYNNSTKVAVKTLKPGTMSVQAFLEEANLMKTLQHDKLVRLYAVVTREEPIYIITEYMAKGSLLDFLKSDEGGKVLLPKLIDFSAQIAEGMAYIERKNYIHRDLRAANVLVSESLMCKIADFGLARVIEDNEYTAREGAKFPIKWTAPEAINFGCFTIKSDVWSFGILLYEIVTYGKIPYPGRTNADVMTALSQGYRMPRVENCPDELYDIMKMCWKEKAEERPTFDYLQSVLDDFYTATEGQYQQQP
# T13 sequence (P50750 whole entry): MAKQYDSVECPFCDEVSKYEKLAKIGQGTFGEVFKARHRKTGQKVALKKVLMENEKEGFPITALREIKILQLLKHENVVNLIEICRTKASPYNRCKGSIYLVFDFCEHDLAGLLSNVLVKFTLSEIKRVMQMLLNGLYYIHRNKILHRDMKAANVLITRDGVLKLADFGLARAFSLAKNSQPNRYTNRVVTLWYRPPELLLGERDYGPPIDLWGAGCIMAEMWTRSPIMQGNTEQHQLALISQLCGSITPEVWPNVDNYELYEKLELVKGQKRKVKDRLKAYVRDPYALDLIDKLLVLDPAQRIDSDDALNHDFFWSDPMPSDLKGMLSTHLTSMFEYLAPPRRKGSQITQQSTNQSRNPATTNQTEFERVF
# T13 sequence (O60563 whole entry partner): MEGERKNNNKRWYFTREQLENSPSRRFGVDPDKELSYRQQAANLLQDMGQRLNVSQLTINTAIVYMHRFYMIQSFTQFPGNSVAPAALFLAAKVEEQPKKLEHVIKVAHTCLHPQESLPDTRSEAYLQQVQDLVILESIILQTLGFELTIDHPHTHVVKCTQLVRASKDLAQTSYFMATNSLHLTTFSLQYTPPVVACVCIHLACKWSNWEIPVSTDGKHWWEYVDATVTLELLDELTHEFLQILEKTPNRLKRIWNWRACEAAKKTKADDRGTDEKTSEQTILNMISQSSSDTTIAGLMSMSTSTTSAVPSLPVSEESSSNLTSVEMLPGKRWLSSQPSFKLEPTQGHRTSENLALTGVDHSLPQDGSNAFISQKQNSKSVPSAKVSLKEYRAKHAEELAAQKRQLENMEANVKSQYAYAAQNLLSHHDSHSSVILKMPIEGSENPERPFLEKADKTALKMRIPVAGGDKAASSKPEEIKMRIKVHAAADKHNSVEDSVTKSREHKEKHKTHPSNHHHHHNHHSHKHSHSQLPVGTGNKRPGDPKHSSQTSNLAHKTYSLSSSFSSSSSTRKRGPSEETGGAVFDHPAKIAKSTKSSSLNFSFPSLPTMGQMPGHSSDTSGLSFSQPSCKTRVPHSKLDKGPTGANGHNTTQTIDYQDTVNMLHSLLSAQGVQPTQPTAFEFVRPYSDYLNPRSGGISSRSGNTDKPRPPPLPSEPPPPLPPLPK
# T20 sequence (P49841 whole entry): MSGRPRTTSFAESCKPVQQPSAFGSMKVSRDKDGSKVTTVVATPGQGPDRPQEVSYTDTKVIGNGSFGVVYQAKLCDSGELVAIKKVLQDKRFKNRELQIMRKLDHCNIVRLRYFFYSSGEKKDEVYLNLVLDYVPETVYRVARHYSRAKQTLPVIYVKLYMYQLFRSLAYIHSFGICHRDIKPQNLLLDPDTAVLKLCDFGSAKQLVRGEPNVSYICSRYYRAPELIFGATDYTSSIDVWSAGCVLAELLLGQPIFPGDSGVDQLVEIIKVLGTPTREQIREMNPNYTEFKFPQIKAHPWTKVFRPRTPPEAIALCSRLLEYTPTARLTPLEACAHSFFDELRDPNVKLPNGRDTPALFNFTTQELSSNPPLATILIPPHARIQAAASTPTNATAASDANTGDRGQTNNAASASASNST
# T17 sequence (O43353 whole entry): as the sequence (O43353 whole entry) above
smiles,measurement,setting,value
"c1cc(-c2ccc3nccc(Nc4ccc5scnc5c4)c3c2)ccn1 [Compound 14, N-(6-(pyridin-4-yl)quinolin-4-yl)benzo[d]thiazol-5-amine]",LOK remaining activity (% of control),LOK(h); 1 µM,44
same,inhibition at 1 µM,LOK(h); at 1 µM,50 to 90%
same,TBK1 remaining activity (%) with compound 14 at 1 µM,TBK1(h),97
same,RIPK2 remaining activity (% of control),RIPK2(h); 1 µM,3
same,inhibition at 1 µM,RIPK2(h); at 1 µM,> 90%
same,percent remaining MAPKAP-K2 activity,MAPKAP-K2(h),95
same,% remaining kinase activity with compound 14 at 1 µM,Syk(h),94
same,Rsk1 kinase activity remaining (% of control),Rsk1(h),98
same,Remaining kinase activity (% of control),[1],54
same,Remaining PKG1α activity (% of control) with compound 14 at 1 µM,PKG1α(h),64
same,remaining kinase activity (%),PRAK(h),123
same,Remaining kinase activity (% of control),EphA5(h),96
same,percent remaining kinase activity,[2],81
same,"EGFR(h), 14 @ 1 µM",EGFR(h),104
same,remaining kinase activity (%),CDK9/cyclin T1(h); 1 µM,41
same,inhibition at 1 µM,CDK9/cyclin T1(h); at 1 µM,50 to 90%
same,Remaining DRAK1 activity (% of control),DRAK1(h),110
same,CL,[3],9.64 mL/min/kg
same,half-life,[3],1.6 h
same,Remaining Lyn kinase activity (% of control),Lyn(h); 1 µM,3
same,inhibition at 1 µM,Lyn(h); at 1 µM,> 90%
same,Remaining kinase activity (%) at 1 µM,CDK6/cyclinD3(h),100
same,IC50,RIPK2,5.1 ± 1.6 nM
same,% remaining mTOR activity with compound 14 at 1 µM,mTOR(h),106
same,"SRPK1(h), 14 @ 1 µM",SRPK1(h),111
same,remaining kinase activity (%),GSK3β(h),75
same,Mnk2 remaining activity (% of control) with compound 14 at 1 µM,Mnk2(h),68
same,Remaining IKKα activity at 1 µM (% of control),IKKα(h),104
same,remaining kinase activity (% of control) with compound 14 at 1 µM,[4],88
same,Remaining MLK1 activity (%) with compound 14 at 1 µM,MLK1(h),89
same,Remaining kinase activity (% of control),JAK3(h),100
same,"KDR(h), 14 @ 1 µM",KDR(h); 1 µM,11
same,inhibition at 1 µM,KDR(h); at 1 µM,50 to 90%
same,Remaining IKKε activity at 1 µM (% of control),IKKε(h),106
same,Remaining kinase activity (% of control),Aurora-A(h),95
same,Remaining Itk kinase activity (%) with compound 14 at 1 µM,Itk(h),78
same,MST1 kinase activity remaining with compound 14 at 1 µM (% of control),MST1(h),105
same,percent remaining NEK2 kinase activity with compound 14,NEK2(h),88
same,Remaining kinase activity (% of control),ROCK-I(h),70
same,Remaining kinase activity (% of control) at 1 µM compound 14,p70S6K(h),95
same,c-RAF remaining activity (% of control) with compound 14 at 1 µM,c-RAF(h),65
same,Remaining kinase activity (% of control),CK1γ1(h),93
same,Remaining kinase activity at 1 µM (% of control),PDGFRβ(h),64
